Laboratory results taken from patent publication US20260325485A1, “COMPOSITIONS AND METHODS FOR TREATING PANCREATITIS” (The United States Government as represented by the …, priority 2022, published 2026).

Tests used:
mouse acinar cells = assay: Total cholesterol content of mouse acinar cells (ex vivo pancreatitis models or cholesterol chelator); type: cell-based; design: total cholesterol in acinar cells, physiologic doses: dose or concentration left out as unconfirmed; conditions: for cholesterol overload, mouse acinar cells: ex-vivo pancreatitis, 1 h, 100 nM CCK, 1 mM carbachol or 500 μM TLCS
Description: (§1) FIGS. 8A-8M show derangement of cholesterol metabolism in experimental pancreatitis. Characteristics of cholesterol metabolism were measured, as detailed in FIGS. 4A-4R, in pancreas of WT mice subjected to pancreatitis induced with cerulein (CER-AP), L-arginine (Arg-AP), or CDE diet (CDE-AP) (A, B, and E-G); ex vivo pancreatitis induced in WT mouse (C and I-M) or human acinar cells (D) with 100 nM CCK (CCK-AP) or 1 mM carbachol; and isolated pancreatic mitochondria (H). (B) Cholesterol ester (CE) heatmap; each column represents an individual mouse. (F) IB analysis of the indicated proteins. (G) LAL activity was measured by a fluorogenic assay (n=6 mice per condition). (H) Cholesterol content was measured by enzymatic assay. (I-M) Filipin colocalization with indicated proteins was quantified as detailed in FIGS. 2A-2L. Each symbol in A, C-E, and H represents an individual mouse, or cell or mitochondria preparation (n=3-15 per condition). Each symbol in J, K, and M corresponds to 20-30 cells in a different field (n=10-20 fields from 3 cell preparations per condition). Values are mean±SEM. *P<0.05, **P<0.01, ***P<0.001 vs. the same parameter in control/untreated pancreas, acinar cells or isolated mitochondria. Significance was determined by 2-tailed Student's t test (B, E, H, J, K, and M) or 1-way ANOVA followed by Tukey's multiple comparison test (A, C, and D). Scale bars: 10 μm.
(§2) Parameters of cholesterol metabolism were measured in (A, B, E, F) pancreas of mice subjected to pancreatitis induced with cerulean (CER-AP), L-arginine (Arg-AP), or combination of EtOH+palmitoleic acid (EtOH+POA); and (C) ex-vivo models on mouse and human acinar cells treated for 1 h with 100 nM CCK, […] or 500 μM TLCS. In (A), each column in CE heatmap represents an individual mouse. (B, C) Total cholesterol content was measured with cholesterol assay kit (Abcam, ab65390). […] Each symbol corresponds to 20-30 cells in each of 8 high-expression (qPCR) of proteins regulating cholesterol synthesis (4 mice/group). (B-D) Each symbol represents an individual animal or cell preparation. (A-D, F) Values are mean±SE (*p<0.05, **p<0.01, ***p<0.001 vs saline or control). Signficance was determined by 2-tailed student's t test.
(§3) Ex vivo pancreatitis models were performed on mouse and human acinar cells, and human pancreas slices by incubation with supramaximal CCK (100 nM) or carbachol (1 mM), as described previously (80, 81).
(§4) Total cholesterol content was measured with Cholesterol Assay kit per manufacturer's instructions. Samples of mouse pancreas and liver, cell pellet homogenates, subcellular fractions, isolated mitochondria, and serum were diluted in the reaction buffer containing cholesterol probe and incubated at 37° C. for 1 h in the dark. To measure total cholesterol, the samples were subjected to digestion with cholesterol esterase. To measure non-esterified cholesterol, the esterase was omitted from the assay.
Fluorescence intensity (for cholesterol) and absorbance (for TAG) were measured in a Tecan microplate reader. Each measurement was in duplicate, and the values were normalized per mg total protein in the sample.

human acinar cells = assay: Total cholesterol content of human acinar cells (ex vivo pancreatitis models); type: cell-based; conditions: for cholesterol overload, human acinar cells: ex-vivo pancreatitis, 1 h, 100 nM CCK, 1 mM carbachol or 500 μM TLCS
Description: as §1, §2, §3
Human pancreas slices were obtained as in (12), from portions of live normal human pancreata from pre-terminal donors that were not used for transplantation and diverted to research (provided by Trillium Gift of Life Network, Toronto, Ontario, year 2020) or from normal portions of pancreatic cancer operations. Pancreas was cut into ~3×3×3 mm pieces and embedded with 37° C. low melting 3.8% agarose gel in extracellular solution containing (mM): 125 NaCl, 2.5 KCl, 1 MgCl2, 2 CaCl2, 1.25 NaH2PO4, 26 NaHCO3, 2 sodium pyruvate, 0.25 ascorbic acid, 3 myo-inositol, 6 lactic acid, and 7 glucose, and placed on ice to solidify the gel. The gelled tissue blocks were sliced with Vibratome into 120 μm-thick slices; slices were washed with the same extracellular solution, placed in 199 medium containing 0.1 mg/mL soybean trypsin inhibitor, and treated with CCK-8 (CCK) or carbachol for ex-vivo pancreatitis.
Total cholesterol content was measured with Cholesterol Assay kit per manufacturer's instructions. […]

NPC1 [1] = biological target: T1, NPC1 (Mus musculus, UniProt O35604); assay: Effects of NPC1 inhibitor U18666A on WT mouse pancreas; type: in vivo; conditions: 15 days
T1 sequence (O35604 23-1277): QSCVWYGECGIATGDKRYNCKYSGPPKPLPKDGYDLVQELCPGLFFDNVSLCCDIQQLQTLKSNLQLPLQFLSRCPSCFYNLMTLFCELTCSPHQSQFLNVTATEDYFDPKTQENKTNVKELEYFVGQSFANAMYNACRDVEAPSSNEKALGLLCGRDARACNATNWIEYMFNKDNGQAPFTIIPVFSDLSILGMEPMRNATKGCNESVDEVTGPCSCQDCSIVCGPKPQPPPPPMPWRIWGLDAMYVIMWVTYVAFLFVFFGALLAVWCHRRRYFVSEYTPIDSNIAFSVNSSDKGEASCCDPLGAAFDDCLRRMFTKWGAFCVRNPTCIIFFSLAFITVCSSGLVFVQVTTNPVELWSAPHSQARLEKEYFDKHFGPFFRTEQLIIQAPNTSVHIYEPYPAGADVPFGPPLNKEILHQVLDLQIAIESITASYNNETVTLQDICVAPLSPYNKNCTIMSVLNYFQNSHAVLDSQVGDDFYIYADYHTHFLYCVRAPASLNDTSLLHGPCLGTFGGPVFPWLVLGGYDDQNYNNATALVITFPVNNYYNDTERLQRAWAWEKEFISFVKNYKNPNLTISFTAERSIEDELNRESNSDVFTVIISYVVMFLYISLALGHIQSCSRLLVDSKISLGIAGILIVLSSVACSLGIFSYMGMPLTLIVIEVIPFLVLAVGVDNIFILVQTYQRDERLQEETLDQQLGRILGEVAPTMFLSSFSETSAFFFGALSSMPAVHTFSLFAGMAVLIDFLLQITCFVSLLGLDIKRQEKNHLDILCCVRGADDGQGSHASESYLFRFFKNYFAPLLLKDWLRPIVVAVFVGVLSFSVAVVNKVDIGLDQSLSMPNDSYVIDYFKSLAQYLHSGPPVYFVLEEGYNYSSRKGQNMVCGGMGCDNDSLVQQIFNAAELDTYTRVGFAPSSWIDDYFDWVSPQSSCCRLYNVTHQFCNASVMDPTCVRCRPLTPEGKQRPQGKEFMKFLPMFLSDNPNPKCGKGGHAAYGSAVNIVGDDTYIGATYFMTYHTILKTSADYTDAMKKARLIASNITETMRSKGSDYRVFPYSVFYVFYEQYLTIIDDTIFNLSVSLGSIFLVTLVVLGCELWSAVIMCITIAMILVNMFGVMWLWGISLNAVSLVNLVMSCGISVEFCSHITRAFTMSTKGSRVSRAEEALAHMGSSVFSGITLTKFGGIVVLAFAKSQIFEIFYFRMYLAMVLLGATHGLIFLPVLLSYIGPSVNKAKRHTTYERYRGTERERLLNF
Description: FIGS. 9A-9E show cerulein pancreatitis decreases pancreatic levels of GNPTAB and mediators of cholesterol trafficking through LE/Ly. (A, D, and E) IB analysis of the indicated proteins in pancreas of WT mice subjected to CER-AP and in Gnptab^−/− mice. NS, nonspecific band. (B and C) Cholesterol content was measured in pancreas of (B) WT mice that received daily i.p. injections of the NPC1 inhibitor U18666A (10 mg/kg) or vehicle for 15 days and (C) Lamp2^−/− mice. Each symbol in B, C, and E represents an individual mouse. Values are mean±SEM from 3 to 5 mice per condition. ***P<0.001 vs. the same parameter in WT control/untreated or saline-treated mice. Significance was determined by 2-tailed Student's t test (B and C) or 1-way ANOVA followed by Tukey's multiple comparison test (E).
(§5) FIGS. 10A-10N show deranged cholesterol metabolism causes acinar cell damage, while its normalization ameliorates experimental pancreatitis. (A-D) Cholesterol content and trypsin activity were measured (per mg protein) in WT mouse acinar cells incubated for 1 hour without and with methyl-β-cyclodextrin (MCD; 10 mM) or cholesterol-loaded MCD (MCD-Chol; 200 μg/mL), in the presence or absence of 100 nM CCK. Values are expressed relative to those in cells without MCD/MCD-Chol. (E-J) WT mice received daily i.p. injections of the LXR agonist T0901317 (T09), simvastatin (Sim; 20 mg/kg each), or vehicle. On day 4, mice were subjected to CER-AP and pancreata collected for analyses (see also FIG. 20). Cholesterol content (E), trypsin activity (F), and pancreas histopathology (H&E staining; G) were measured. (H, I, L, and N) IB analysis of markers/mediators of autophagy (LC3, p62), ER stress (CHOP, GRP-78), and mitophagy (Parkin). Ub, ubiquitylated proteins. (J) Mitochondrial fragmentation was assessed by immunostaining for Tom20, as detailed in FIG. 7G. (K and L) Mouse acinar cells were treated for 16 hours with LDL (30 μg/mL) or the combination of LDL and 10 μM U18666A. (M and N) Mice received injections of U18666A as detailed in FIG. 9B. Pancreas histopathology (H&E staining; M) and levels of autophagy markers/mediators (N) were measured. Each symbol in A-F and I represents an individual mouse or cell preparation. Values are mean±SEM from 3 to 7 mice or cell preparations per condition. ^§ P<0.05, ^§§ P<0.01 vs. control cells (without MCD/MCD-Chol). ***P<0.001 vs. saline-treated mice. ^#P<0.05, ^##P<0.01, ^###P<0.001 vs. CER-AP alone (no inhibitors). Significance was determined by 2-tailed Student's t test (A-D) or 1-way ANOVA followed by Tukey's multiple comparison test (E, F, and I). Scale bars: 10 μm.
viii. In Vivo Treatments of Mice
12-week-old WT mice were subjected for 4 consecutive days to daily i.p. injections of 20 mg/kg simvastatin (8,9) or 20 mg/kg T0901317 (10); or 10 mg/kg U18666A for 15 days (11). Control mice received vehicle injections. Some of the simvastatin- and T0901317-treated mice were subjected to CER-AP on day 4, as indicated in corresponding figures.
as §4
Pancreatitis responses were measured as previously described (1-7). Serum amylase and lipase were measured in a Hitachi 707 analyzer. Acinar cell vacuolization and necrosis were quantified on H&E stained pancreatic tissue sections; at least 1000 acinar cells/mouse were analyzed in several high-power fields. ATP was measured in tissue homogenates using bioluminescence assay (3-5).

NPC1 [2] = biological target: T1, NPC1; assay: Effects of U18666A with LDL on WT acinar cells; type: cell-based; conditions: LDL 30 μg/mL + 10 μM U18666A, 16 hours
Description: as §5
To examine the effect of disrupted cholesterol turnover, WT acinar cells were incubated with LDL-cholesterol in the presence and absence of the NPC1 inhibitor U18666A. U18666A caused cholesterol accumulation in LE/Ly (filipin staining; FIG. 10K), resulting in impaired autophagy (manifested by concomitant accumulation of LC3-II and ubiquitylated proteins) and increases in CHOP and Parkin (FIG. 10L).
Immunoblots were developed using enhanced chemiluminescence detection kit (Pierce), and band intensities were quantified by densitometry using FluorChem HD2 imaging system (Alpha Innotech/ProteinSimple).
Staining for neutral lipids and free cholesterol was performed by incubation of fixed-frozen tissue sections or fixed cells with, respectively, 2 μg/ml BODIPY493/503 for 45 min or 100 µg/ml filipin for 2 h at room temperature. For double labeling, BODIPY493/503 or filipin were applied after fixed-frozen tissue or cell sections incubated with primary and secondary antibodies.

[3] = supramaximal (100 nM) CCK-8 or carbachol, ex vivo AP

## C[C@H](CCC(=O)NCCS(=O)(=O)O)[C@H]1CC[C@H]2[C@@H]3CC[C@@H]4C[C@H](OS(=O)(=O)O)CC[C@]4(C)[C@H]3CC[C@]12C [TLCS]
Mouse acinar cells
  cholesterol overload, mouse acinar cells: prominent
Human acinar cells
  cholesterol overload, human acinar cells: prominent

## C[N+](C)(C)CCOC(N)=O [carbachol]
Mouse acinar cells
  cholesterol overload, mouse acinar cells: prominent
Mouse acinar cells; physiologic doses of CCK or carbachol
  total cholesterol in acinar cells, physiologic doses: did not alter
Mouse acinar cells; [3]
  cholesterol content, mouse acinar cells, supramaximal stimulation: increased
Human acinar cells
  cholesterol overload, human acinar cells: prominent
Human acinar cells; [3]
  cholesterol content, human acinar cells, supramaximal stimulation: increased

## CCN(CC)CCO[C@H]1CC[C@@]2(C)C(=CC[C@@H]3[C@@H]2CC[C@]2(C)C(=O)CC[C@@H]32)C1 [U18666A, 3-beta-[2-(diethylamino)ethoxy] androst-5-en-17-one]
NPC1 [1]; 10 mg/kg daily i.p.
  cholesterol content in WT mouse pancreas, U18666A: elevated
NPC1 [1]; 10 mg/kg i.p. daily
  LC3-II in mouse pancreas: accumulation
  acinar cell vacuolization, mice: increased
  inflammation, mouse pancreas: inflammation
  p62 in mouse pancreas: accumulation
  ubiquitylated proteins in mouse pancreas: accumulation
NPC1 [1]; 10 mg/kg i.p. daily, up to ~
  necrosis, mouse pancreas: ≤ 20%
NPC1 [2]
  CHOP, acinar cells: increases
  LC3-II (impaired autophagy), acinar cells: accumulation
  Parkin, acinar cells: increases
  cholesterol in LE/Ly (filipin staining): accumulation
  ubiquitylated proteins (impaired autophagy), acinar cells: accumulation
